Drawing on PubChem BioAssay (NCI), this text covers TGI for 20 molecules.

Assay in all cases: NCI tumour cell line growth inhibition, 48 h
Assay [1] deals with 786-0 renal.
Assay [2] has as its system A549 NSCLC.
Assay [3] concerns BT-549 breast.
Assay [4] concerns HCC-2998 colon.
In assay [5] the test system is HCT-15 colon.
Assay [6] deals with HL-60(TB) leukemia.
The subject of assay [7] is HS 578T breast.
The test system of assay [8] is MDA-N.
Assay [9] has as its system NCI-H226 lung.
The test system of assay [10] is OVCAR-5 ovarian.
Assay [11] has as its system SR leukemia.
Assay [12] has as its system SW-620 colon.
Assay [13] has as its system T-47D breast.
Assay [14] relates to TK-10 renal.

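96-well plates; 48 h exposure; 5 concentrations. Endpoints by linear interpolation between flanking doses. Not reached: highest tested concentration assigned. TGI: concentration producing complete growth inhibition.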 Some results are limits rather than exact numbers.

As to `OC[C@H]1CC(c2nn[nH]n2)[C@H](O)[C@@H]1O` (stereo partly specified), the TGI in assay [1], in assay [2], in assay [3], in [4], in [5] and in assay [6] was more than 100 µM in each case. Further, the TGI in assay [7], in [8], in [9], in [10], in assay [11] and in assay [12] was more than 100 µM throughout. Also, the TGI in assay [13] and in assay [14] was more than 100 µM each time.
On to `CC(C)C1OCC(CO)CO1` (stereo unspecified), for which the TGI in [1], in [2], in assay [3], in assay [4], in assay [5] and in assay [6] was more than 100 µM each time. Moreover, the TGI in assay [7], in assay [8], in assay [9], in [10], in [11] and in assay [12] was more than 100 µM throughout. Moreover, the TGI in assay [13] and in [14] was more than 100 µM each time.
As to `CCCNc1[nH]c(C(C)=O)c(N)c1C(=S)Nc1ccccc1`, the TGI in assay [1] was 75.6 µM; in assay [2] it was more than 100 µM; in [3] it was 68.4 µM; in [4] it was more than 100 µM; in assay [5] it was more than 100 µM; in [6], more than 100 µM. Also, the TGI was more than 100 µM in assay [7]; more than 100 µM in assay [8]; 75 µM in [9]; more than 100 µM in assay [10]; more than 100 µM in assay [11]; more than 100 µM in [12]. The TGI in assay [13] and in assay [14] was more than 100 µM throughout.
With `Cc1ccc(C2SC(N)=Nc3c2c(C)nn3C(=O)c2ccncc2)cc1` (stereo unspecified), the TGI in [1], in assay [2], in assay [3], in [4], in [5] and in assay [6] was more than 10 µM throughout. Also, the TGI in assay [7], in assay [8], in [9], in assay [10], in assay [11] and in [12] was more than 10 µM each time. For the same molecule, the TGI in [13] and in assay [14] was more than 10 µM in each case.
As for `COc1ccc(-c2nc3ccc(C)cc3o2)c(OC)c1`, the TGI in [1] is 41.7 µM; in assay [2] it was more than 67.4 µM; in assay [3], 67.1 µM; in assay [4] it was 45.8 µM; in [5] it was 58.8 µM; in [6], 50 µM. For the same molecule, the TGI is 71.4 µM in assay [7]; 64.4 µM in assay [8]; 79.1 µM in assay [9]; 42 µM in [10]; more than 72.3 µM in assay [11]; more than 86 µM in [12]. In addition, the TGI is more than 96.1 µM in assay [13] and 76.5 µM in assay [14].
On to `CCOC(=O)c1sc2nc(SC)nc(Nc3ccc(OC)c(OC)c3)c2c1N`, for which the TGI in [1], in assay [2], in assay [3], in [4], in assay [5] and in assay [6] was more than 100 µM in each case. Further, the TGI was 64.3 µM in assay [7]; more than 100 µM in assay [8]; more than 100 µM in assay [9]; more than 100 µM in assay [10]; more than 100 µM in assay [11]; more than 100 µM in [12]. Further, the values for the TGI in assay [13] and in assay [14] were more than 100 µM and 76.4 µM, respectively.
Regarding `CS(=O)(=O)C(=Cc1ccccc1Cl)S(C)(=O)=O`, the TGI in [1], in [2], in [3], in assay [4], in [5] and in assay [6] was more than 100 µM each time. For the same molecule, the TGI in assay [7] is more than 100 µM; in [8], more than 46.4 µM; in [9] it was more than 100 µM; in assay [10], more than 100 µM; in assay [11], more than 100 µM; in assay [12], more than 100 µM. Besides, the TGI in assay [13] and in assay [14] was more than 100 µM each time.
On to `CCCCc1ccc(Nc2nc(Cl)c3[nH]cnc3n2)cc1`, for which the TGI in [1] is 29.1 µM; in [2], more than 100 µM; in assay [3] it was 65.4 µM; in assay [4], 41.2 µM; in [5], 34.4 µM; in assay [6], more than 100 µM. In addition, the TGI in assay [7] is 50.5 µM; in assay [8], 43.1 µM; in [9], more than 100 µM; in [10], more than 100 µM; in assay [11], more than 100 µM; in assay [12], 37.4 µM. For the same molecule, the values for the TGI in [13] and in [14] were 37.2 µM and 50.6 µM, respectively.
In the case of `CCCCNc1nc(SC)nc2nc[nH]c12`, the TGI in assay [1], in assay [2], in assay [3], in assay [4], in [5] and in [6] was more than 100 µM throughout. In addition, the TGI was 21.9 µM in [7]; more than 100 µM in [8]; more than 100 µM in [9]; more than 100 µM in assay [10]; more than 100 µM in assay [11]; more than 100 µM in assay [12]. The TGI in assay [13] and in assay [14] was more than 100 µM throughout.
`CC[C@H](CCCCC1CC[C@@H]2CC(=O)C[C@H]12)OC` (stereo partly specified): the TGI in assay [1], in assay [2], in assay [3], in [4], in [5] and in assay [6] was more than 100 µM throughout. The TGI in [7], in [8], in assay [9], in [10], in assay [11] and in assay [12] was more than 100 µM throughout. The TGI in assay [13] and in [14] was more than 100 µM in each case.
Regarding `COC(=O)C1=NN2c3ccccc3CN([C@@H](C)c3ccccc3)C(=O)[C@@H]2C1`, the TGI was more than 100 µM in [1]; more than 100 µM in assay [2]; 64.9 µM in assay [3]; more than 100 µM in assay [4]; more than 100 µM in [5]; 48.6 µM in assay [6]. Also, the TGI was 85.8 µM in [7]; more than 100 µM in assay [8]; more than 100 µM in [9]; more than 100 µM in assay [10]; 82.9 µM in assay [11]; more than 100 µM in assay [12]. Moreover, the TGI is 40.1 µM in assay [13] and more than 100 µM in assay [14].
In the case of `Cc1ccc(S(=O)(=O)C2=c3ncccc3=C3C(=O)c4ccccc4C(=O)C32)cc1` (stereo unspecified), the TGI in assay [1] was 50.3 µM; in assay [2], more than 100 µM; in assay [3], more than 88.6 µM; in assay [4], more than 100 µM; in [5], more than 100 µM; in assay [6], more than 100 µM. Further, the TGI was 81.8 µM in assay [7]; more than 100 µM in assay [8]; more than 100 µM in assay [9]; more than 83.9 µM in assay [10]; more than 100 µM in [11]; more than 100 µM in assay [12]. Also, the TGI in assay [13] is more than 100 µM; in [14], more than 71.3 µM.
In the case of `C=CCCCC1(C)CCCCNC1=O` (stereo unspecified), the TGI in assay [1], in assay [2], in assay [3], in assay [4], in [5] and in [6] was more than 10 µM throughout. In addition, the TGI in assay [7], in [8], in assay [9], in assay [10], in assay [11] and in [12] was more than 10 µM each time. Also, the TGI in assay [13] and in [14] was more than 10 µM in each case.
As for `Cc1ccc(S(=O)(=O)n2ccn3c(=O)cc(C)nc23)cc1`, the TGI in [1], in [2], in [3], in assay [5], in [6] and in [7] was more than 10 µM each time. The TGI in assay [8], in [9], in assay [10], in assay [11], in assay [12] and in assay [13] was more than 10 µM each time. In assay [14], this molecule came in with a TGI of more than 10 µM.
With `Cc1cccc(C)c1NC(=S)/N=C/C1=C(O)c2ccccc2C1=O`, the TGI is more than 100 µM in [1]; more than 100 µM in assay [2]; more than 28.8 µM in assay [3]; more than 100 µM in assay [4]; more than 100 µM in [5]; more than 100 µM in assay [6]. For the same molecule, the TGI is more than 100 µM in assay [7]; more than 95.5 µM in [8]; more than 100 µM in assay [9]; more than 100 µM in assay [10]; 8.19 µM in [11]; more than 100 µM in [12]. Moreover, the TGI in assay [13] is more than 100 µM; in assay [14] it was more than 81.2 µM.
For `CC(C)(C)SC1=CCC[C@@H](P(=O)(c2ccccc2)c2ccccc2)[C@@H]2CCC[C@@H]12`, the TGI worked out at 30.4 µM in assay [1]; 35.2 µM in assay [2]; 32.3 µM in assay [3]; 29.9 µM in assay [4]; 33 µM in assay [5]; 47.5 µM in assay [6]. Further, the TGI in assay [7] was found to be 47.6 µM; in [8] it was 30.3 µM; in [9], 35.6 µM; in assay [10], 27.1 µM; in assay [11] it was 43.6 µM; in assay [12], 85.3 µM. For the same molecule, the TGI in assay [13] is 33.3 µM; in assay [14] it was 32.3 µM.
As to `C=CCSc1nn(CC=C)cc2ncnc1-2`, the TGI in assay [1], in assay [2], in assay [3], in assay [5], in assay [6] and in assay [7] was more than 100 µM throughout. The TGI in [8], in [9], in assay [10], in assay [11], in [12] and in assay [13] was more than 100 µM each time. For the same molecule, the TGI in assay [14] was more than 100 µM.
Turning to `O=C1c2c(Br)sc(Br)c2[C@H]2NC(=S)O[C@@H]12`, the TGI in assay [1] was found to be 28.5 µM; in [2], 46.8 µM; in assay [3] it was 30.3 µM; in assay [4] it was 34.8 µM; in [5] it was 16.6 µM; in assay [7] it was 60 µM. Also, the TGI in assay [8] was determined as 30.6 µM; in assay [9] it was 42.9 µM; in [10] it was 35.2 µM; in [11], 15.3 µM; in assay [12], 11.3 µM; in assay [13], 69.3 µM. Besides, the TGI in assay [14] was determined as 57.9 µM.
In the case of `CC(=O)OC1CC(OC2C(O)CC(OC3C(O)CC(OC4CCC5(C)C(CCC6C5CC(O)C5(C)C(C7=CC(=O)OC7)CCC65O)C4)OC3C)OC2C)OC(C)C1O` (stereo unspecified) (tested in a mixture with another compound), the TGI was found to be 0.13 µM in assay [1]; 0.0259 µM in [2]; 0.201 µM in assay [3]; 0.463 µM in [4]; 0.107 µM in assay [5]; 0.435 µM in assay [7]. Further, the TGI in [8] is 0.147 µM; in assay [9], 0.176 µM; in assay [10], 0.12 µM; in assay [11] it was more than 100 µM; in [12], 0.268 µM; in assay [13] it was 0.41 µM. Also, the TGI in assay [14] was 0.114 µM.
On to `Nc1nc(Cl)cc(Nc2ccc3c(c2)CCC3)n1`, for which the TGI in assay [1] is more than 100 µM; in [2] it was more than 100 µM; in [3] it was more than 100 µM; in assay [4] it was more than 100 µM; in [5], more than 100 µM; in assay [6] it was 80.9 µM. Besides, the TGI in assay [7] was more than 100 µM; in assay [8], more than 100 µM; in assay [9], more than 100 µM; in assay [10], more than 100 µM; in assay [11], 63.3 µM; in assay [12] it was more than 100 µM. Further, the TGI in [13] and in [14] was more than 100 µM in each case.
